Laboratory results from article PMC5543143, “Structural Basis for the Mechanism of ATP-Dependent Acetone Carboxylation” (Scientific Reports, 2017).
Read-outs that look alike come from different tables or passages of the source.

Key:
[1] = target: T1, native acetone carboxylase (AC) from X. autotrophicus 7C (Xanthobacter versatilis, UniProt Q8RM03+Q8RM04); assay: X-ray crystal structure; type: binding; parameters: gene acxA; native purification from acetone-grown cells, untagged; (alpha beta gamma)2 heterohexamer, 360 kDa; with Acetone carboxylase gamma subunit; settings: co-crystallised with 10 mM ATP and 10 mM acetone; AMP bound at beta subunit; acetate at Mn site; pH 7.5
[2] = target: T2, acetone carboxylase (AC, XaAC), recombinant (Xanthobacter versatilis, UniProt Q8RM03+Q8RM04); settings: turnover only
T2 construct: gene acxA

[3] = target: T1, native acetone carboxylase (AC) from X. autotrophicus 7C; parameters: gene acxA; settings: with acetone and HCO3-; turnover only
[4] = target: the molecule itself; assay: crystal structure; recombinant AC (αβγ)2, ligand-free and AMP-bound; hanging drop, 25 °C, 14-18% PEG 3350, 0.2 M MgSO4, pH 6.3; nucleotide additives 5 mM; SAD with selenium

T2 sequence (Q8RM04 whole entry, one chain of several): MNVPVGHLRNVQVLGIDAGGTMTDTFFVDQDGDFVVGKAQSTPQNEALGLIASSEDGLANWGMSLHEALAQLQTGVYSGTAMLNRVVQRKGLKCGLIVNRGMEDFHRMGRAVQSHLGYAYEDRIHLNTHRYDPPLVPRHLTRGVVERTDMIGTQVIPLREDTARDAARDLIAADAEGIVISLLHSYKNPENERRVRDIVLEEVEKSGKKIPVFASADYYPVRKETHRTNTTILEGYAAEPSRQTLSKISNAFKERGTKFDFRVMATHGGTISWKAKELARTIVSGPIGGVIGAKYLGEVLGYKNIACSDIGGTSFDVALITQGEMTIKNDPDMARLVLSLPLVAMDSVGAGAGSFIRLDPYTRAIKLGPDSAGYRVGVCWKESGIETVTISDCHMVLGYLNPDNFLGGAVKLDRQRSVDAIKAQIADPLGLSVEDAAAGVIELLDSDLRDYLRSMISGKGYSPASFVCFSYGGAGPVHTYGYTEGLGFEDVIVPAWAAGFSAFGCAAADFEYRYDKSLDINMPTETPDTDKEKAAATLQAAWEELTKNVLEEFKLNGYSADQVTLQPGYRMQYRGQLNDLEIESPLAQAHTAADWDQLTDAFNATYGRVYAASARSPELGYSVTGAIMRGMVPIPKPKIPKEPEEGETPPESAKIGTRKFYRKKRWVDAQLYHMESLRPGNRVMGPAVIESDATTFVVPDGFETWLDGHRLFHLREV
T2 sequence (Q8RM02 2-168, one chain of several, further chain): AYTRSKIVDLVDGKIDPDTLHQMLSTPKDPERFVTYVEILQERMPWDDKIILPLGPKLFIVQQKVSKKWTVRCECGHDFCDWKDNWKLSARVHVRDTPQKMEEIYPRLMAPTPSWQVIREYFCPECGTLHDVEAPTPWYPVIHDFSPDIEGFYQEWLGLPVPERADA
T1 sequence (Q8RM04 whole entry, one chain of several): as the sequence (Q8RM04 whole entry, one chain of several) above
T1 sequence (Q8RM02 2-168, one chain of several, further chain): as the sequence (Q8RM02 2-168, one chain of several, further chain) above

In the case of Nc1ncnc2c1ncn2[C@@H]1O[C@H](COP(=O)(O)O)[C@@H](O)[C@H]1O [AMP], the X-ray crystal structure [1] is reported as “with AMP bound and no acetone visible in the density”.

Nc1ncnc2c1ncn2[C@@H]1O[C@H](COP(=O)(O)OP(=O)(O)OP(=O)(O)O)[C@@H](O)[C@H]1O [ATP] was tested, and the “coupled spectrophotometric assay with 3-hydroxybutyrate dehydrogenase” value ([2]; with acetone and HCO3-) was “actively catalyzed the ATP- and HCO3 ^− -dependent carboxylation of acetone to acetoacetate” and the acetone carboxylation activity [3] was “actively catalyzed the ATP- and HCO3 ^− -dependent carboxylation of acetone to acetoacetate”.

CC(C)=O [acetone] was tested, and the “coupled spectrophotometric assay with 3-hydroxybutyrate dehydrogenase” value ([2]; ATP and HCO3- dependent carboxylation to acetoacetate) was “actively catalyzed the ATP- and HCO3 ^− -dependent carboxylation of acetone to acetoacetate”.

B1: acetone carboxylase α subunit (AcxB) from Xanthobacter autotrophicus Py2, recombinant (natural protein, UniProt Q8RM03 1-776, looked up)
chain: MNVTVDQSTLAGATRGIVRGGETLKEHRDRLMAATKATGRYAGLKTLELREREPILYNKLFSRLRAGVVDARETAKKIAASPIVEQEGELCFTLYNAAGDSLLTSTGIIIHVGTMGAAIKYMIENNWEANPGVHDKDIFCNNDSLIGNVHPCDIHTIVPIFWEGELIGWVGGVTHVIDTGAVGPGSMATGQVQRFGDGYSITCRKVGANDTLFRDWLHESQRMVRTTRYWMLDERTRIAGCHMIRKLVEEVVAEEGIEAYWKFAYEAVEHGRLGLQARIKAMTIPGTYRQVGFVDVPYAHEDVRVPSDFAKLDTIMHAPCEMTIRRDGTWRLDFEGSSRWGWHTYNAHQVSFTSGIWVMMTQTLIPSEMINDGAAYGTEFRLPKGTWMNPDDRRVAFSYSWHFLVSAWTALWRGLSRSYFGRGYLEEVNAGNANTSNWLQGGGFNQYDEIHAVNSFECAANGTGATAVQDGLSHAAAIWNPEGDMGDMEIWELAEPLVYLGRQIKASSGGSGKYRGGCGFESLRMVWNAKDWTMFFMGNGHISSDWGLMGGYPAASGYRFAAHKTNLKELIASGAEIPLGGDTDPENPTWDAMLPDAQIKRDKQAITTEEMFSDYDLYLNYMRGGPGFGDPLDREPQAVADDINGGYVLERFAGEVYGVVVRKGADGQYGVDEAGTAAARAQIRKDRLAKSVPVSEWMKGEREKILAKDAGTQVRQMFAASFKLGPRFEKDFRTFWSLPDSWTLPEEEIGVPTYGSRYSMDISELPDVHTVQFVEE
notes: acetone carboxylase α subunit (75 kDa), gene acxB (Xaut_3510), X. autotrophicus Py2; amplified from the start to the stop codon; Subunit of the (αβγ)2 heterohexamer; The initial structure was solved from selenomethionine-labelled protein; also called AC α; Xaut_3510; source: E. coli BL21(DE3), co-expressed with the β and γ subunits, purified (His-NTA, desalting)
B1: binds [4].
